Results reported in patent US20240226020A1 (AMGEN INC., priority 2021, published 2024).
Entries after “also recorded” stand apart in the source; their conditions may differ.

How the values were obtained:
[1] = Water dispersion study: pharmacokinetics of 8×120 mg tablets versus tablets dispersed in water; type: in vivo, healthy subjects; conditions: plasma; for AUC(0-inf): human, oral, 960 mg, Geometric mean sotorasib AUCinf
Procedure: Doses were administered orally on Days 1 and 4 during the mornings after an overnight fast of at least 10 hours. A total of 13 subjects entered the study (7 subjects receiving treatment in the sequences of Treatment A followed by Treatment B; and 6 subjects receiving treatment in the sequences of Treatment B followed by Treatment A). Data for all subjects was included in the pharmacokinetic (PK) and safety analyses. […] PK parameters including AUClast, AUCinf, and Cmax were estimated and compared between Treatment A and Treatment B. The natural log-transformed PK parameters were analyzed using a mixed model. The model included treat, period, and sequence as fixed effect and subject nested within a sequence as a random effect. […] Additionally, the pooled estimate (across all treatments) of the within-subject coefficient of variation was calculated, and residual plots were produced to assess the adequacy of the model(s) fitted.

[2] = Water dispersion study: safety and tolerability; type: in vivo; conditions: healthy subjects
Procedure: Doses were administered orally on Days 1 and 4 during the mornings after an overnight fast of at least 10 hours. A total of 13 subjects entered the study (7 subjects receiving treatment in the sequences of Treatment A followed by Treatment B; and 6 subjects receiving treatment in the sequences of Treatment B followed by Treatment A). Data for all subjects was included in the pharmacokinetic (PK) and safety analyses. […] All events resolved by the end of the study.

[3] = Compressibility (tablet solid fraction as a function of compaction pressure); type: physicochemical
Procedure: (§1) After compression, tablets were measured for their ejected weight, thickness and diameter. Tablets were then stored for minimally 48 hours to allow for complete viscoelastic relaxation. The recovered dimensions were measured prior to diametrical compression testing performed using the HB compaction simulator operating at a constant loading rate of 5 mm/min. The force required to cause diametrical failure was recorded and used to compute radial tensile strength values.
Compressibility: The ability of a powder bed to be reduced in volume due to the application of an applied stress gives an indication of powder compressibility. This behavior is described in terms of tablet solid fraction as a function of compaction pressure (see Table 38). Interpretation of the data considers the change in solid fraction between two pressure conditions. The increased difference in SF at a high pressure and a low pressure is indicative of increased compressibility of the blend. […] Therefore, a 3:1 plastic to brittle diluent ratio, e.g., a 3:1 Avicel PH102 to lactose ratio, is preferred.

[4] = Compactibility and tabletability (radial tensile strength, compression pressure); type: physicochemical
Procedure: as §1
Compactibility and Tabletability: The ability of a powder bed to cohere into or to form a compact gives an indication of powder compactibility. This behavior is described as a plot of tablet radial tensile strength (RTS) as a function of tablet solid fraction (SF) (FIG. 12A). For understanding fundamental material behavior, it is advantageous to compare materials at similar levels of solid fraction. […] The compactibility of all three placebo blends can be classified as “low” because each blend has been previously dry granulated. Tabletability is another relevant parameter which is useful in identifying the pressure needed to achieve a specific tablet hardness or tensile strength. This behavior is described as a plot of tablet radial tensile strength (RTS) as a function of compaction pressure (FIG. 12B).

[5] = system: extracellular signal-regulated kinase (ERK); conditions: preclinical studies; cited from earlier work

SMILES: C=CC(=O)N1CCN(c2nc(=O)n(-c3c(C)ccnc3C(C)C)c3nc(-c4c(O)cccc4F)c(F)cc23)[C@@H](C)C1 (atropisomer, axis not shown; (M)) [Sotorasib, 6-fluoro-7-(2-fluoro-6-hydroxyphenyl)-(1M)-1-[4-methyl-2-(propan-2-yl)pyridin-3-yl]-4-[(2S)-2-methyl-4-(prop-2-enoyl)piperazin-1-yl]pyrido[2,3-d]pyrimidin-2(1H)-one]
- median sotorasib tmax ([1]; 8×120 mg tablets (Formulation #8) dispersed in water (Treatment B), single oral dose, fasted): 1 h
- AUC(0-inf) ([1]; administered as tablets (Treatment A)): 25300 ng·h/mL
- AUC(0-inf) ([1]; administered as water dispersion (Treatment B)): 26400 ng·h/mL
- Safety and tolerability ([2]; single doses of 960 mg as tablets dispersed in water and as tablets): safe and well tolerated; also recorded: safe and well-tolerated
- Clinical laboratory evaluations, vital signs, 12-lead ECGs ([2]; single doses of 960 mg): no clinically significant findings
- Serious adverse events ([2]; single doses of 960 mg): no serious adverse events
- Treatment-emergent adverse events ([2]; single doses of 960 mg, all mild, related to sotorasib, resolved): Three treatment-emergent adverse events of constipation, nausea and vomiting
- applied pressure required to produce a tablet with an out of die solid fraction of 0.85 [3]: approximately 145 MPa
- Assessment of compressibility and compactibility [4]: high levels of compressibility combined with very low levels of compactibility
- solid fraction at a theoretical strength value of 2 MPa [4]: 0.85
- RTS (MPa) @ 0.85 SF ([4]; 0.85 SF): 1.59 MPa
- RTS (MPa) @ 150 MPa ([4]; 150 MPa): 1.62 MPa
- CP (MPa) @ RTS = 2 MPa ([4]; RTS = 2 MPa): 149.00 MPa
- SF @ RTS = 2 MPa ([4]; RTS = 2 MPa): 0.85
- radial tensile strength ([4]; compressed to a peak pressure of 150 MPa): 1.62 MPa
- radial tensile strength ([4]; compressed to an out of die solid fraction of 0.85): 1.59 MPa
- phosphorylation of extracellular signal-regulated kinase (ERK) [5]: inhibited nearly all detectable phosphorylation
